Results as given in patent publication US9518065B2, “IRAK inhibitors and uses thereof” (NIMBUS IRIS, INC., priority 2013, dated 2016).

Target: T1, IRAK4 (Homo sapiens, UniProt Q9NWZ3)
T1 construct: purchased CARNA Bioscience 09-145
T1 sequence (Q9NWZ3 1-460): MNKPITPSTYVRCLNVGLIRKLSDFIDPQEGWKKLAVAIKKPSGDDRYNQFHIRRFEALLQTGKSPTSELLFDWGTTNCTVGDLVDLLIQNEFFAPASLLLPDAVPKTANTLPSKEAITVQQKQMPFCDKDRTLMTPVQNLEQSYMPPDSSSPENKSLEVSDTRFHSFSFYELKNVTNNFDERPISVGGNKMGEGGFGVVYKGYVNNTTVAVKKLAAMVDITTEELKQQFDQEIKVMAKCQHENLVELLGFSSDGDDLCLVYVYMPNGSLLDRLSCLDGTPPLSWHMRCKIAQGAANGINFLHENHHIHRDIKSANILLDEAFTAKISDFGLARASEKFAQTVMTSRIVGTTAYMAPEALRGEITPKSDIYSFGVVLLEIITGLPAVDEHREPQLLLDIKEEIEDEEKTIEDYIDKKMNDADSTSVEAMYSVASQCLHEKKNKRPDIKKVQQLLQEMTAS
Experiment: IRAK-4 activity inhibition assay (Caliper)
Assay type: biochemical
Settings: 3.5 nM IRAK4, 37 μM ATP, 1.5 μM Peptide 8
Procedure: A 1× kinase base buffer was prepared from 50 mM HEPES, pH 7.5 and 0.0015% Brij-35. A stop buffer was prepared from 100 mM HEPES, pH 7.5, 0.015% Brij-35, 0.2% Coating Reagent #3, and 50 mM EDTA.
Test compound was diluted to 50× of the final desired highest inhibitor concentration in reaction by 100% DMSO. 100 ul of this compound dilution was transferred to a well in a 96-well plate. For example, if desired highest inhibitor concentration in IC50 determination is 100 uM, then prepare 5000 uM of compound DMSO solution in this step.
Test compound was serially diluted by transferring 30 μl to 60 μl of 100% DMSO in the next well and so forth for a total of 10 concentrations. 100 μl of 100% DMSO was added to two empty wells for no compound control and no enzyme control in the same 96-well plate.
A new 96-well plate was marked as intermediate plate. 5 μl of compound serial dilution was transferred from source plate to the corresponding wells of the intermediate plate. 45 μl of 1× kinase base buffer (KB buffer) was added to each well of the intermediate plate. The intermediate plate was placed for 10 min on a shaker.
5 μl of each well was transferred from the 96-well intermediate plate to a 384-well plate in duplicates. For example, A1 of the 96-well plate is transferred to A1 and A2 of the 384-well plate. A2 of the 96-well plate is transferred to A3 and A4 of the 384-well plate, and so on.
IRAK4 and DTT in 1× kinase base buffer was added. The 2.5× enzyme mix contained 8.8 nM IRAK4 and 5 mM DTT.
Peptide 8, ATP, MgCl2 and MnCl2 were added in the 1× kinase base buffer. The 2.5× peptide mix contained 3.75 μM peptide 8, 92.5 μM ATP, 12.5 mM MgCl2 and 2.5 mM MnCl2.
Assay plate already contained 5 μl of compound in 10% DMSO. Added 10 μl of 2.5× enzyme solution to each well of the 384-well assay plate, except no enzyme control wells. The final concentration of IRAK4 in reaction was 3.5 nM. Added 10 μl of 1× kinase base buffer to no enzyme control wells in the assay plate. Incubated at room temperature for 10 min.
Added 10 μl of 2.5× peptide solution to each well of the 384-well assay plate. The final concentration of Peptide 8 and ATP was 1.5 μM and 37 μM, respectively. Incubated at 28° C. for 40 minutes. Added 25 μl of stop buffer to stop reaction. Collected data on Caliper.
Copied conversion % data from Caliper program. Converted conversion % values to percent inhibition values. Percent inhibition=(max-conversion %)/(max-min)*100, where “max” means the conversion % of DMSO control and “min” means the conversion % of no enzyme control.
The compound numbers correspond to the compound numbers in Table 1. Compounds having an activity designated as “A” provided an IC50≦1 μM; compounds having an activity designated as “B” provided an IC50 of 1-5 μM; compounds having an activity designated as “C” provided an IC50 of ≧5 μM. “NA” stands for “not assayed.”

IC50 [nM]	Structure (SMILES)
1000 to 5000	CCc1nc2c(N[C@H]3CC[C@H](N(C)C)CC3)ncnc2s1 [Compound I-1, (1r,4r)-N1-(2-ethylthiazolo[5,4-d]pyrimidin-7-yl)-N4,N4-dimethylcyclohexane-1,4-diamine]
1000 to 5000	CC(C)c1nc2c(N[C@H]3CC[C@H](N(C)C)CC3)ncnc2s1 [Compound I-2, (1r,4r)-N-1-(2-isopropylthiazolo[5,4-d]pyrimidin-7-yl)-N4,N4-dimethylcyclohexane-1,4-diamine]
1000 to 5000	CCc1nc2c(N[C@H]3CC[C@H](N4CCOCC4)CC3)ncnc2s1 [Compound I-5, 2-ethyl-N-((1r,4r)-4-morpholinocyclohexyl)thiazolo[5,4-d]pyrimidin-7-amine]
≤ 1000	CCc1nc2c(N[C@H]3CC[C@H](N(C)CC(=O)N4CCCC4)CC3)nc(Nc3cnn(C)c3)nc2s1 [Compound I-15, 2-(((1r,4r)-4-((2-ethyl-5-((1-methyl-1H-pyrazol-4-yl)amino)-thiazolo[5,4-d]pyrimidin-7-yl)amino)cyclohexyl)(methyl)amino)-1-(pyrrolidin-1-yl)ethan-1-one]
≤ 1000	CC(=O)c1nc2c(N[C@H]3CC[C@H](N4CCOCC4)CC3)nc(Nc3cnn(C)c3)nc2s1 [Compound I-41, 1-(5-((1-methyl-1H-pyrazol-4-yl)amino)-7-(((1r,4r)-4-morpholinocyclohexyl)amino)thiazolo[5,4-d]pyrimidin-2-yl)ethan-1-one]
≤ 1000	Cn1cc(Nc2nc(N[C@H]3CC[C@H](N4CCOCC4)CC3)c3nc(C(F)(F)F)sc3n2)cn1 [Compound I-44, N5-(1-methyl-1H-pyrazol-4-yl)-N7-((1r,4r)-4-morpholino-cyclohexyl)-2-(trifluoromethyl)thiazolo[5,4-d]pyrimidine-5,7-diamine]
≤ 1000	Cn1cc(Nc2nc(N[C@H]3CC[C@H](N4CCOCC4)CC3)c3nc(C(F)F)sc3n2)cn1 [Compound I-45, 2-(difluoromethyl)-N5-(1-methyl-1H-pyrazol-4-yl)-N7-((1r,4r)-4-morpholinocyclohexyl)thiazolo[5,4-d]pyrimidine-5,7-diamine]
≤ 1000	CC(C)c1nc2c(N[C@H]3CC[C@H](N4CCOCC4)CC3)nc(Nc3cnn(C)c3)nc2s1 [Compound I-47, 2-isopropyl-N5-(1-methyl-1H-pyrazol-4-yl)-N7-((1r,4r)-4-morpholinocyclohexyl)thiazolo[5,4-d]pyrimidine-5,7-diamine]

More lines, now with the values behind:

Structure (SMILES)	IC50 [nM]
CCc1nc2c(O[C@H]3CC[C@H](N(C)C)CC3)ncnc2s1 [Compound I-3, (1r,4r)-4-((2-ethylthiazolo[5,4-d]pyrimidin-7-yl)oxy)-N,N-dimethylcyclo-hexanamine]	≥ 5000
Cc1nc2c(N[C@H]3CC[C@H](N(C)C)CC3)ncnc2s1 [Compound I-4, (1r,4r)-N1,N1-dimethyl-N4-(2-methylthiazolo[5,4-d]pyrimidin-7-yl)cyclo-hexane-1,4-diamine]	1000 to 5000
CCc1nc2c(N(CC)[C@H]3CC[C@H](N4CCOCC4)CC3)ncnc2s1 [Compound I-6, N,2-diethyl-N-((1r,4r)-4-morpholinocyclohexyl)thiazolo[5,4-d]pyrimidin-7-amine]	≥ 5000
CCc1nc2c(N[C@H]3CC[C@H](N4CCC(F)(F)CC4)CC3)nc(Nc3cnn(C)c3)nc2s1 [Compound I-11, N7-((1r,4r)-4-(4,4-difluoropiperidin-1-yl)cyclohexyl)-2-ethyl-N5-(1-methyl-1H-pyrazol-4-yl)thiazolo[5,4-d]pyrimidine-5,7-diamine]	1000 to 5000
CCc1nsc2ncnc(N[C@H]3CC[C@H](N4CCOCC4)CC3)c12 [Compound I-20, 3-ethyl-N-((1r,4r)-4-morpholinocyclohexyl)isothiazolo[5,4-d]pyrimidin-4-amine]	1000 to 5000
CCc1nc2c(N[C@H]3CC[C@H](N4CCOCC4)CC3)nc(N)nc2s1 [Compound I-31, 2-ethyl-N7-((1r,4r)-4-morpholinocyclohexyl)thiazolo[5,4-d]pyrimidine-5,7-diamine]	≥ 5000
Cc1nc2c(N[C@H]3CC[C@H](N4CCOCC4)CC3)nc(N)nc2s1 [Compound I-43, 2-methyl-N7-((1r,4r)-4-morpholinocyclo-hexyl)thiazolo[5,4-d]pyrimidine-5,7-diamine]	≥ 5000
Cn1cc(Nc2nc(N[C@H]3CC[C@H](N4CCOCC4)CC3)c3ncsc3n2)cn1 [Compound I-46, N5-(1-methyl-1H-pyrazol-4-yl)-N7-((1r,4r)-4-morpholinocyclo-hexyl)thiazolo[5,4-d]pyrimidine-5,7-diamine]	≤ 1000
Cn1cc(Nc2nc(N[C@H]3CC[C@H](N4CCOCC4)CC3)c3nc(C(C)(F)F)sc3n2)cn1 [Compound I-48, 2-(1,1-difluoroethyl)-N5-(1-methyl-1H-pyrazol-4-yl)-N7-((1r,4r)-4-morpholinocyclohexyl)thiazolo[5,4-d]pyrimidine-5,7-diamine]	≤ 1000
Cn1cc(Nc2nc(N[C@H]3CC[C@H](N4CCOCC4)CC3)c3nc(C4CC4)sc3n2)cn1 [Compound I-49, 2-cyclopropyl-N5-(1-methyl-1H-pyrazol-4-yl)-N7-((1r,4r)-4-morpholinocyclohexyl)thiazolo[5,4-d]pyrimidine-5,7-diamine]	≤ 1000
Cn1cc(Nc2nc(N[C@H]3CC[C@H](N4CCOCC4)CC3)c3nc(C(C)(C)C)sc3n2)cn1 [Compound I-50, 2-(tert-butyl)-N5-(1-methyl-1H-pyrazol-4-yl)-N7-((1r,4r)-4-morpholinocyclohexyl)thiazolo[5,4-d]pyrimidine-5,7-diamine]	1000 to 5000
c1nc2c(N[C@H]3CC[C@H](N4CCOCC4)CC3)nc(Nc3cnn(C4CCOCC4)c3)nc2s1 [Compound I-51, N7-((1r,4r)-4-morpholinocyclohexyl)-N5-(1-(tetrahydro-2H-pyran-4-yl)-1H-pyrazol-4-yl)thiazolo[5,4-d]pyrimidine-5,7-diamine]	≤ 1000
c1nc2c(N[C@H]3CC[C@H](N4CCOCC4)CC3)nc(Nc3cnn(CC4CCOCC4)c3)nc2s1 [Compound I-52, N7-((1r,4r)-4-morpholinocyclohexyl)-N5-(1-((tetrahydro-2H-pyran-4-yl)methyl)-1H-pyrazol-4-yl)thiazolo[5,4-d]pyrimidine-5,7-diamine]	≤ 1000
CC(C)n1cc(Nc2nc(N[C@H]3CC[C@H](N4CCOCC4)CC3)c3ncsc3n2)cn1 [Compound I-53, N5-(1-isopropyl-1H-pyrazol-4-yl)-N7-((1r,4r)-4-morpholino-cyclohexyl)thiazolo[5,4-d]pyrimidine-5,7-diamine]	≤ 1000
OCCn1cc(Nc2nc(N[C@H]3CC[C@H](N4CCOCC4)CC3)c3ncsc3n2)cn1 [Compound I-54, 2-(4-((7-(((1r,4r)-4-morpholinocyclohexyl)amino)thiazolo[5,4-d]pyrimidin-5-yl)amino)-1H-pyrazol-1-yl)ethan-1-ol]	≤ 1000
Cc1nc2c(O[C@H]3CC[C@H](N4CCOCC4)CC3)nc(Nc3cnn(C(C)C)c3)nc2s1 [Compound I-57, N-(1-isopropyl-1H-pyrazol-4-yl)-2-methyl-7-(((1r,4r)-4-morpholino-cyclohexyl)oxy)thiazolo[5,4-d]pyrimidin-5-amine]	≤ 1000
[2H]C([2H])([2H])c1nc2c(N[C@H]3CC[C@H](N4CCOCC4)CC3)nc(Nc3cnn(C)c3)nc2s1 [Compound I-58, 2-(methyl-d3)-N5-(1-methyl-1H-pyrazol-4-yl)-N7-((1r,4r)-4-morpholinocyclohexyl)thiazolo[5,4-d]pyrimidine-5,7-diamine]	≤ 1000
